Data on six compounds can be found in patent publication US20070015830A1, “Use of a retinoid type compound to modulate in vivo the decoupling activity of the protein UCP2” (priority 1997, published 2007).

The target in assay [1] is T1, UCP2 protein (Mus musculus, UniProt P70406).
T1 construct: lacking the untranslated regions 5′ and 3′ is obtained by enzymatic amplification; expressed in transfected cells; host or cells: Saccharomyces cerevisiae diploid W303, vector pYeDP-1/8-10; isolated mitochondria
T1 sequence (P70406 1-309): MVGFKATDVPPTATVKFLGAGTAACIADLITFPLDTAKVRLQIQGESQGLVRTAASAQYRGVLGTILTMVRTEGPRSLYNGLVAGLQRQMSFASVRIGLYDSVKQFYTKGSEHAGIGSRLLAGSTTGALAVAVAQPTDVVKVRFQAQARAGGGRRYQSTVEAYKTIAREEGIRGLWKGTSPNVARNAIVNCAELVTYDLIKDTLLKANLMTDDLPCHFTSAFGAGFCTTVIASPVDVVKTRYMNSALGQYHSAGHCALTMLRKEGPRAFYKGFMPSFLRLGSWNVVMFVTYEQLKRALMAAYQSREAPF
Description: Respiration stimulation factor in mitochondria of recombinant yeast expressing UCP2. The conditions noted are these: for activation of the activity of UCP2 protein: pH not stated. It counts as biochemical, mice. From the text: The effect of this type of compounds particularly on the activity of UCP2 protein, has been shown on a yeast model. The test consists in constructing yeast layers of recombinant Saccharomyces cervisiae yeasts being capable of expressing UCP2 protein, extracting UCP2 proteins from the mitochondria and measuring the activity of UCP2 protein in the presence or in the absence of retinoic acid. In the model which has been retained, the uncoupling activity of the UCP2 proteins is quantitatively measured by means of the factor of stimulation of respiration.
(§1) This factor corresponds to the ratio of respiration and baseline respiration, measured or in the absence of retinoic acid (when measurements are made at a constant pH but varying the concentration of retinoic acid) or at pH 6.8 (when measurements are made at a given concentration of retinoic acid, but varying the pH).
(§2) Respiration is determined by measurement of the quantity of consumed oxygen, expressed in nanomoles of oxygen per minute and milligram of mitochondrial proteins, the consumption of oxygen being directly linked to the quantity of substrate having been consumed by the mitochondria (in calories).
The cDNA of UCP2 proteins of mice (C. Fleury et al. (1997) Uncoupling protein-2: A novel gene linked to obesity and hyperinsulinaemia, Nature Genetics, 15, 269-272) lacking the untranslated regions 5′ and 3′ is obtained by enzymatic amplification with the following oligonucleotides:
The resulting DNA product is repaired with a Kleenow enzyme, thereafter cut with EcoRl and Sacl. This forces donation in the pYeDP-1/8-10 vector. In each case, the insertion of cDNA encoding for UCP2 protein in the pYeDP vector has been sequenced so as to verify that the encoding sequence had the expected properties. The UCP2-expressing pYeDP-YCP vector is introduced in a diploid W303 strain of Saccharomyces cervisiae yeast ([…]; ade2-10; his3-11,15; leu2-3,112; ura3-1; canl-100; trp-) by electroporation and the transformants are selected for their […].
A process derived from that described by Guérin et al. (Guérin B., Labbe P. et Somlo, M. (1979) Methods Enzymol; 55, 149-159) is used. 36 hours before the extraction of the mitochondria a pre-culture in SP-medium (0.67% o nitrogenated yeast base, 0.1% KH2PO4, 0.12% (NH4)2SO4, 0.1% glucose, 2% lactic acid, 0.1% casaminoacids, 20 mg/l triptophane, 40 mg/1 adenine of pH 4.5), 10 or 12 hours before the extraction, a dilution in SP-medium (2% galactose, 0.67% nitrogenated yeast base, 0.1% casaaminoacids, 20 mg/l triptophane and […] adenine, at an optical density of 0.35-0.4).
Protoplasts are prepared by enzymatic digestion with cytohelicase and the mitochondria are isolated by differential centrifugation after homogenization of the protoplasts obtained by enzymatic digestion of the cell wall.
Only quantitative measurement of mitochondrial respiration has been made for UCP2. This measurement is made at 20° C. in an oxygen-electrode chamber (Clark electrode) commercialized by the company HANSATECH. The incubation medium contains 0.65M mannitol, […] Tris/Maleate, 0.5 mM EGTA, 2 mM MgC12, 10 mMK2hpo4, 1 mg/ml ([…]) albumin pH6.8).
Mitochondria concentration is 0.15 mg/ml. NADH (3 mM) is used as substrate as mitochondria of Saccharomyces cervisiae are capable of oxidizing NADH of external origin).
The tests are performed varying any of the pH or the terinoïc acid concentration in the medium. The concentrations of free retinoic acid are esteemed up to some tens of nanomars (determined by fixing the molar ratio retinoic acid:albumin). The concentration of albumin is 0.1 mg/ml […]) in the respiration buffer and the tested pH are respectively 6.8; 7.1; 7.3 or 7.5. The further components of the buffer are identical to those in example 1 and in the same concentrations.

Assay [2] deals with T1, UCP2 protein. The assay is described as above. It counts as biochemical, mice. The conditions noted are these: FIG. 5; molar ratio acid:albumin 3:1 and 4:1.
In assay [3] the test system is yeast mitochondria lacking UCP proteins. Description: Membrane potential of yeast mitochondria lacking UCP proteins (control). It counts as biochemical, Saccharomyces cervisiae. The conditions noted are these: FIG. 6a. From the text: FIG. 6 evidences the variation in the membrane potentials and respiration of mitochondria in yeasts (reflecting the uncoupling activity of UCP1 protein) under the effect of the retinoic acid. The upper curve reflects oxygen consumption (expressed in nanomoles of oxygen per minute per milligram of mitochondrial proteins) and the lower curve the membrane potentials. FIG. 6a corresponds to measurements made in yeast mitochondria lacking UCP proteins and FIG. 6b corresponds to measurements made in yeast mitochondria wherein UCP1 protein is expressed. • N: designates the addition of NADH (respitation substrate) • R: designates the addition of retinoic acid (respectively at a molar ratio retinoic acid:albumin of 2:1 and 4:1) • G: designates the addition of 1 millimolar guanosine diphosphate (an inhibitor of UCP1 protein).

For assay [4], the target named is T2, UCP1 protein (Rattus norvegicus, UniProt P04633).
T2 construct: The cDNA of the UCP1 protein which lacks the untranslated regions at 3′ and 5′ is obtained by enzymatic amplification; expressed in transfected cells; host or cells: Saccharomyces cerevisiae, vector pYeDP-1/8-10 (plasmid pYeDP-UCP+); isolated mitochondria
T2 sequence (P04633 1-307): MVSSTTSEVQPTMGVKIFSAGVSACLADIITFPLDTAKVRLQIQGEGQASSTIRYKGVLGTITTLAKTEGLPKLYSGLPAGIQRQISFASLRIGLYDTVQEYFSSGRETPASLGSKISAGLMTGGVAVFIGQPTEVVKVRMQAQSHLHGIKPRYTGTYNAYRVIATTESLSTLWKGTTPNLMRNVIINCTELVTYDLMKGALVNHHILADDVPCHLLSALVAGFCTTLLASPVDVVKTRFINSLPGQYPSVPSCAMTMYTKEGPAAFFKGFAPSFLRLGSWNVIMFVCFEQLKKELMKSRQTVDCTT
In words: Respiration stimulation factor in mitochondria of recombinant yeast expressing UCP1. It counts as biochemical. On the procedure:
as §1, §2
FIG. 2 represents a curve of response of yeast mitochondria to retinoic acid. In the abscissa, there appears the molar ratio of retinoic acid/albumin (albumin concentration: 1 micromole within the medium); in the ordinate, there appears the factor of stimulation of the baseline respiration. FIG. 2a was obtained at pH 6.8 and figure at pH 7.3.
The construction of the expression vectors, the recombinant Saccharomyces cervisiae strains, the preparation of the mitochondria and the measurement of the activity of the UCP1 protein are described in the publication of Arechaga et al. already cited in example 1. […]

In assay [5] the target is T2, UCP1 protein. Description: Membrane potential of yeast mitochondria expressing UCP1. It counts as biochemical. The conditions noted are these: FIG. 6b, molar ratio retinoic acid:albumin 2:1 and 4:1. An excerpt: There is also a qualitative method for determining the uncoupling activity of an UCP protein. It is the measurement of the mitochondrial membrane potential the reduction of which is an evidence of the decrease of the quality of the recovery of chemical energy at the level of the mitochondria. Activation of an uncoupling protein is reflected by de decrease of the membrane potential followed by an acceleration of the respiration.
FIG. 6 evidences the variation in the membrane potentials and respiration of mitochondria in yeasts (reflecting the uncoupling activity of UCP1 protein) under the effect of the retinoic acid. The upper curve reflects oxygen consumption (expressed in nanomoles of oxygen per minute per milligram of mitochondrial proteins) and the lower curve the membrane potentials. […]
This activity may be measured qualitatively or quantitatively, with the help of the parameters: • qualitatively: • The mitochondrial membrane potential; the increase of the activity of an uncoupling protein is reflected by a reduction of the membrane potential and a resulting increase in oxygen consumption. In turn, the increase corresponds to an increase in dissipation of energy. • quantitatively: • mitochondrial respiration (oxygen consumption) which is linked directly to the quantity of substrate consumed by the mitochondria. […]

Entries after “also recorded” stand apart in the source; their conditions may differ.

With `CC1=CC(=O)CC(C)(C)C1(O)/C=C/C(C)=C\C(=O)O` (centres unmarked) [abscissic acid], on UCP2 protein [1], the “activation of the activity of UCP2 protein” value (from here on “activation”) was “No activation”.

With `CCCCC/C=C\C/C=C\C/C=C\C/C=C\CCCC(=O)O` [arachidonic acid], the “activation” value on UCP2 protein [1] was “No activation”.

In the case of `CCCCCCCCCCCCCCCC(=O)O` [palmitic acid], the “change of UCP2 activity with the pH and the increase of the concentration of palmitic acid” value at UCP2 protein [2] is “slight increase”. Moreover, the “activation” value on UCP2 protein [1] is reported as “does not have any effect; also recorded: not the case”.

For `CC1=C(/C=C/C(C)=C/C=C/C(C)=C/C(=O)O)C(C)(C)CCC1` [retinoic acid, all-trans retinoic acid], the “effect on mitochondrial membrane potential” value in assay [3] is “not observed”; on UCP1 protein [5], “induces a reduction of the membrane potential”. Besides, at UCP2 protein [1] (molar ratio retinoic acid/albumin 3:1 vs 4:1, FIGS. 4a and 4b), the “change of the activity of UCP2 protein when the concentration of retinoic acid increases” value is listed as “slight increase”. Besides, the “increase of the activity of UCP2 (respiration stimulation factor)” value is listed as “no notable increase; also recorded: not the case” on UCP2 protein [1] (pH 6.8, FIG. 2a) and “the increase is very sensitive” at UCP2 protein [1] (pH 7.3, FIG. 2b). Besides, the “activation” value on UCP2 protein [1] is given as “activates the dissipation of energy by UCP2”. The “response of UCP1 protein (respiration stimulation factor)” value at UCP1 protein [4] (pH 6.8, FIG. 2a) is listed as “responds”. Besides, on UCP1 protein [4] (pH not stated, FIG. 3a for palmitic acid), the “response / uncoupling activity of UCP1 protein” value is recorded as “capable of increasing the uncoupling activity”.

In the case of `CC1=C(/C=C/C(C)=C/C=C/C(C)=C/CO)C(C)(C)CCC1` [retinol], at UCP2 protein [1], the “activation” value is recorded as “No activation”.

Turning to `O=C(O)c1ccccc1O` [salicylic acid], the “activation” value on UCP2 protein [1] is on record as “No activation”.
